Reference: US20070161542A1, “Ptb1b photoprobes” (priority 2003, published 2007)

Key:
purified Flag-PTP1B = molecular target: T1, purified Flag-PTP1B (Homo sapiens, UniProt P18031); test: Photolabeling of purified enzyme using radioactive photoprobes; type: binding
T1 construct: Flag-PTP1B (residues 1-320 as a flag fusion); made in house
T1 sequence (P18031 1-320): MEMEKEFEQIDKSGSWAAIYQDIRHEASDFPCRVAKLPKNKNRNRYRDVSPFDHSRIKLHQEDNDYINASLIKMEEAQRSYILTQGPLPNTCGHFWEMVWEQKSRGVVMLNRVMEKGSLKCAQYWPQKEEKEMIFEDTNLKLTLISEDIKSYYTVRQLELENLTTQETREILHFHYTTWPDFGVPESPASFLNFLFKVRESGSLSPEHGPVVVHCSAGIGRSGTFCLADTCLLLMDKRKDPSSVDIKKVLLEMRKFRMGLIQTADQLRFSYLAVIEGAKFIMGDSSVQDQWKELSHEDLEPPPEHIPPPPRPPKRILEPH
Procedure: All photolabeling experiments with purified enzymes or SF9 cell lysate overexpressing PTP1B were conducted in 96-well polystyrene plates in 50 μl BisTris buffer (50 mM BisTris pH 6.3, 2 mM EDTA, 1 mM DMH) containing enzyme (in BisTris buffer with 20% glycerol, 0.01% Triton X-100) or lysate and Example 9 (in water) or Example 1 (in water) at various concentrations and shaken for 1 min at room temperature. For competition studies, BzN-EJJ-AMIDE at various concentrations was added prior to the addition of the probes. The samples were then placed on ice for 5 min and irradiated with the 40 watt lamp at the standard 10 cm distance for 15 minutes. […] Autoradiography of the dried, coommassie-stained gel was done using Phosphorimaging (Molecular Devices) or by x-ray film (BioMax MS with intensifier screen, Kodak) and quantified by densitometry.
To study the labeling of PTP1B under physiological concentrations that exist in cells and tissues, ^125I -radiolabeled versions of Examples 9 and 1 were synthesized. […] The labeled enzyme was detected by phosphorimage (Molecular Devices) or x-ray film (BioMax MS with intensifier screen) from a SDS-PAGE gel after electrophoresis. From a titration of the purified PTP1B and probe, a detection limit for the two probes of Examples 9 and 1 were determined to be about 5 and 0.2 nM respectively, as detected by phosphorimaging. […]

[1] = Photolysis of the probes in water (time course, quantum yield); type: physicochemical; conditions: chemical actinometry; absorbance at 345 and 350 nm for Examples 9 and 1
Procedure: A time course for photolysis of the probes in water was determined by measuring product formation by HPLC-MS. […] Based on the time course of photolysis of an aqueous probe with a 40 W lamp, t1/2 values of about 2 min were measured using the 40 W lamp. When a 450 W lamp was used, the t1/2 was reduced to less than 30 sec.
The quantum yield of the photoprobes was determined from the number of photons absorbed and the number of moles of photolysis product that were formed. The number of photons absorbed was determined by chemical actinometry, using the method of Parker (26). The moles of irradiated product produced over time was measured by measuring the absorbance at 345 and 350 nm for Examples 9 and 1 respectively. The quantum yield was calculated to be 0.83 and 0.74 for Examples 9 and 1 respectively.

efficiency of labeling (purified Flag-PTP1B; 7 nM probe, purified Flag-PTP1B, vs probe alone after gel electrophoresis): 9%
detection limit of labeled PTP1B (purified Flag-PTP1B; 125I-radiolabeled probe, purified PTP1B, phosphorimaging): about 5 nM
quantum yield [1]: 0.83
SMILES: NC(=O)[C@H](Cc1ccc(C(F)(F)P(=O)(O)O)cc1)NC(=O)[C@H](Cc1ccc(C(F)(F)P(=O)(O)O)cc1)NC(=O)c1cc(I)cc(C2(C(F)(F)F)N=N2)c1 [Example 9, 4-(Difluoro(phosphono)methyl)-N-(3-iodo-5-(3-(trifluoromethyl)-3H-diaziren-3-yl)benzoyl)-L-phenylalanyl-4-(difluoro(phosphono)methyl)-L-phenylalaninamide]
